Data reported in the supplement of paper PMC10307832.

Key:
Experiment in all cases: relative viability (nuclei count vs DMSO), 5 days (fraction); higher = more cells survive
[1] = system: 201T
Method in brief: (§1)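 Nuclei were stained with Hoechst during a one-step fixation (final 0.05% Triton X-100, 1% formaldehyde, 1 ug/ml Hoechst) carried out 5 days after dosing, then counted on 4× images. The cells, lung cancer lines in 1536-well plates, had been dosed by pin tool the day after seeding with one drug alone or a fixed anchor-drug dose plus five library-drug doses (not always all listed) in √10 steps. Relative viability is the nuclei count in treated wells divided by that in vehicle wells, and each value is the median of duplicate plates.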

[2] = system: A-427
Method in brief: as §1

[3] = system: BEN
Method in brief: as §1

[4] = system: COR-L 105
Method in brief: as §1

[5] = system: COR-L23
Method in brief: as §1

[6] = system: EKVX
Method in brief: as §1

[7] = system: HARA
Method in brief: as §1

[8] = system: HCC-15
Method in brief: as §1

[9] = system: HCC-44
Method in brief: as §1

[10] = system: HCC-827
Method in brief: as §1

[11] = system: LK-2
Method in brief: as §1

[12] = system: NCI-H1437
Method in brief: as §1

[13] = system: NCI-H1666
Method in brief: as §1

[14] = system: NCI-H1975
Method in brief: as §1

[15] = system: NCI-H23
Method in brief: as §1

[16] = system: NCI-H358
Method in brief: as §1

[17] = system: NCI-H441
Method in brief: as §1

[18] = system: NCI-H596
Method in brief: as §1

[19] = system: NCI-H650
Method in brief: as §1

[20] = system: NCI-H838
Method in brief: as §1

[21] = system: SK-MES-1
Method in brief: as §1

[22] = system: SW 900
Method in brief: as §1

How did the relative viability ([1]; first compound 0.005 µM) turn out when `CC1(C)CCC(c2ccc(Cl)cc2)=C(CN2CCN(c3ccc(C(=O)NS(=O)(=O)c4ccc(N[C@H](CCN5CCOCC5)CSc5ccccc5)c(S(=O)(=O)C(F)(F)F)c4)cc3)CC2)C1` [Navitoclax] + O=C(CCCCCCC(=O)Nc1ccccc1)NO [Vorinostat] (partner 1 µM) was run?
The relative viability was 1.05.

And the relative viability ([1]; first compound 0.01581 µM)?
Its relative viability is 1.12.

What about the relative viability ([1]; first compound 0.05 µM) of the same molecule?
The relative viability was 0.89.

And the relative viability ([1]; first compound 0.1581 µM)?
Its relative viability is 0.937.

And the relative viability ([1]; first compound 0.5 µM)?
Its relative viability is 1.02.

What about the relative viability ([2]; first compound 0.005 µM) of the same molecule?
The relative viability was 0.915.

And the relative viability ([2]; first compound 0.01581 µM)?
The relative viability was 0.873.

And the relative viability ([2]; first compound 0.05 µM)?
The relative viability was 0.91.

What about the relative viability ([2]; first compound 0.1581 µM) of the same molecule?
Its relative viability is 0.892.

And the relative viability ([2]; first compound 0.5 µM)?
Its relative viability is 0.838.

And the relative viability ([3]; first compound 0.005 µM)?
The relative viability was 0.617.

What about the relative viability ([3]; first compound 0.01581 µM) of the same molecule?
The relative viability was 0.658.

What about the relative viability ([3]; first compound 0.05 µM) of the same molecule?
Its relative viability is 0.593.

And the relative viability ([3]; first compound 0.1581 µM)?
Its relative viability is 0.572.

What about the relative viability ([3]; first compound 0.5 µM) of the same molecule?
Its relative viability is 0.417.

What about the relative viability ([4]; first compound 0.005 µM) of the same molecule?
Its relative viability is 0.853.

What about the relative viability ([4]; first compound 0.01581 µM) of the same molecule?
Its relative viability is 0.946.

And the relative viability ([4]; first compound 0.05 µM)?
Its relative viability is 0.858.

And the relative viability ([4]; first compound 0.1581 µM)?
The relative viability was 0.778.

And the relative viability ([4]; first compound 0.5 µM)?
Its relative viability is 0.745.

What about the relative viability ([5]; first compound 0.005 µM) of the same molecule?
The relative viability was 0.475.

And the relative viability ([5]; first compound 0.01581 µM)?
Its relative viability is 0.535.

What about the relative viability ([5]; first compound 0.05 µM) of the same molecule?
The relative viability was 0.425.

And the relative viability ([5]; first compound 0.1581 µM)?
Its relative viability is 0.386.

And the relative viability ([5]; first compound 0.5 µM)?
Its relative viability is 0.411.

And the relative viability ([6]; first compound 0.005 µM)?
Its relative viability is 0.735.

And the relative viability ([6]; first compound 0.01581 µM)?
Its relative viability is 0.911.

What about the relative viability ([6]; first compound 0.05 µM) of the same molecule?
Its relative viability is 0.668.

What about the relative viability ([6]; first compound 0.1581 µM) of the same molecule?
Its relative viability is 0.711.

What about the relative viability ([6]; first compound 0.5 µM) of the same molecule?
The relative viability was 0.79.

What about the relative viability ([7]; first compound 0.005 µM) of the same molecule?
Its relative viability is 0.536.

What about the relative viability ([7]; first compound 0.01581 µM) of the same molecule?
Its relative viability is 0.629.

What about the relative viability ([7]; first compound 0.1581 µM) of the same molecule?
Its relative viability is 0.521.

What about the relative viability ([7]; first compound 0.5 µM) of the same molecule?
Its relative viability is 0.55.

And the relative viability ([8]; first compound 0.005 µM)?
Its relative viability is 0.808.

And the relative viability ([8]; first compound 0.01581 µM)?
Its relative viability is 0.831.

What about the relative viability ([8]; first compound 0.05 µM) of the same molecule?
The relative viability was 0.684.

What about the relative viability ([8]; first compound 0.1581 µM) of the same molecule?
Its relative viability is 0.794.

And the relative viability ([8]; first compound 0.5 µM)?
Its relative viability is 0.809.

And the relative viability ([9]; first compound 0.005 µM)?
Its relative viability is 1.13.

What about the relative viability ([9]; first compound 0.01581 µM) of the same molecule?
The relative viability was 1.07.

What about the relative viability ([9]; first compound 0.05 µM) of the same molecule?
Its relative viability is 0.988.

And the relative viability ([9]; first compound 0.1581 µM)?
Its relative viability is 1.12.

What about the relative viability ([9]; first compound 0.5 µM) of the same molecule?
Its relative viability is 1.09.

What about the relative viability ([10]; first compound 0.005 µM) of the same molecule?
Its relative viability is 0.951.

And the relative viability ([10]; first compound 0.01581 µM)?
The relative viability was 0.902.

And the relative viability ([10]; first compound 0.05 µM)?
Its relative viability is 0.619.

And the relative viability ([10]; first compound 0.1581 µM)?
The relative viability was 0.77.

What about the relative viability ([10]; first compound 0.5 µM) of the same molecule?
The relative viability was 0.907.

And the relative viability ([11]; first compound 0.005 µM)?
The relative viability was 0.293.

And the relative viability ([11]; first compound 0.01581 µM)?
Its relative viability is 0.33.

What about the relative viability ([11]; first compound 0.05 µM) of the same molecule?
Its relative viability is 0.367.

What about the relative viability ([11]; first compound 0.1581 µM) of the same molecule?
The relative viability was 0.307.

What about the relative viability ([11]; first compound 0.5 µM) of the same molecule?
The relative viability was 0.277.

And the relative viability ([12]; first compound 0.005 µM)?
The relative viability was 0.834.

And the relative viability ([12]; first compound 0.01581 µM)?
The relative viability was 0.888.

What about the relative viability ([12]; first compound 0.05 µM) of the same molecule?
The relative viability was 0.847.

What about the relative viability ([12]; first compound 0.1581 µM) of the same molecule?
Its relative viability is 0.88.

And the relative viability ([12]; first compound 0.5 µM)?
Its relative viability is 0.808.

What about the relative viability ([13]; first compound 0.005 µM) of the same molecule?
Its relative viability is 1.

What about the relative viability ([13]; first compound 0.01581 µM) of the same molecule?
The relative viability was 1.04.

What about the relative viability ([13]; first compound 0.05 µM) of the same molecule?
The relative viability was 1.03.

And the relative viability ([13]; first compound 0.1581 µM)?
Its relative viability is 0.999.

What about the relative viability ([13]; first compound 0.5 µM) of the same molecule?
The relative viability was 1.05.

And the relative viability ([14]; first compound 0.005 µM)?
The relative viability was 0.718.

What about the relative viability ([14]; first compound 0.01581 µM) of the same molecule?
The relative viability was 0.765.

What about the relative viability ([14]; first compound 0.05 µM) of the same molecule?
Its relative viability is 0.752.

What about the relative viability ([14]; first compound 0.1581 µM) of the same molecule?
Its relative viability is 0.718.

What about the relative viability ([14]; first compound 0.5 µM) of the same molecule?
The relative viability was 0.592.

What about the relative viability ([15]; first compound 0.005 µM) of the same molecule?
The relative viability was 0.594.

What about the relative viability ([15]; first compound 0.01581 µM) of the same molecule?
Its relative viability is 0.468.

What about the relative viability ([15]; first compound 0.05 µM) of the same molecule?
Its relative viability is 0.505.

What about the relative viability ([15]; first compound 0.1581 µM) of the same molecule?
The relative viability was 0.478.

What about the relative viability ([15]; first compound 0.5 µM) of the same molecule?
The relative viability was 0.544.

What about the relative viability ([16]; first compound 0.005 µM) of the same molecule?
Its relative viability is 0.705.

What about the relative viability ([16]; first compound 0.01581 µM) of the same molecule?
Its relative viability is 0.816.

And the relative viability ([16]; first compound 0.05 µM)?
Its relative viability is 0.689.

And the relative viability ([16]; first compound 0.1581 µM)?
Its relative viability is 0.652.

And the relative viability ([16]; first compound 0.5 µM)?
Its relative viability is 0.848.

What about the relative viability ([17]; first compound 0.005 µM) of the same molecule?
Its relative viability is 0.651.

And the relative viability ([17]; first compound 0.01581 µM)?
Its relative viability is 0.961.

And the relative viability ([17]; first compound 0.05 µM)?
Its relative viability is 0.982.

What about the relative viability ([17]; first compound 0.1581 µM) of the same molecule?
Its relative viability is 0.694.

What about the relative viability ([17]; first compound 0.5 µM) of the same molecule?
Its relative viability is 0.725.

What about the relative viability ([18]; first compound 0.005 µM) of the same molecule?
The relative viability was 0.648.

And the relative viability ([18]; first compound 0.01581 µM)?
Its relative viability is 0.739.

What about the relative viability ([18]; first compound 0.05 µM) of the same molecule?
Its relative viability is 0.299.

What about the relative viability ([18]; first compound 0.1581 µM) of the same molecule?
Its relative viability is 0.55.

And the relative viability ([18]; first compound 0.5 µM)?
Its relative viability is 0.496.

And the relative viability ([19]; first compound 0.005 µM)?
Its relative viability is 0.503.

And the relative viability ([19]; first compound 0.01581 µM)?
Its relative viability is 0.448.

And the relative viability ([19]; first compound 0.05 µM)?
The relative viability was 0.431.

What about the relative viability ([19]; first compound 0.1581 µM) of the same molecule?
The relative viability was 0.463.

And the relative viability ([19]; first compound 0.5 µM)?
Its relative viability is 0.453.

And the relative viability ([20]; first compound 0.005 µM)?
The relative viability was 0.678.

And the relative viability ([20]; first compound 0.01581 µM)?
Its relative viability is 0.73.

What about the relative viability ([20]; first compound 0.05 µM) of the same molecule?
The relative viability was 0.76.

And the relative viability ([20]; first compound 0.1581 µM)?
The relative viability was 0.73.

And the relative viability ([20]; first compound 0.5 µM)?
Its relative viability is 0.667.

And the relative viability ([21]; first compound 0.005 µM)?
The relative viability was 1.06.

What about the relative viability ([21]; first compound 0.01581 µM) of the same molecule?
The relative viability was 1.42.

And the relative viability ([21]; first compound 0.05 µM)?
Its relative viability is 1.15.

What about the relative viability ([21]; first compound 0.1581 µM) of the same molecule?
The relative viability was 1.1.

And the relative viability ([21]; first compound 0.5 µM)?
Its relative viability is 1.17.

And the relative viability ([22]; first compound 0.005 µM)?
Its relative viability is 0.432.

What about the relative viability ([22]; first compound 0.01581 µM) of the same molecule?
The relative viability was 0.573.

What about the relative viability ([22]; first compound 0.1581 µM) of the same molecule?
Its relative viability is 0.478.

And the relative viability ([22]; first compound 0.5 µM)?
Its relative viability is 0.365.
